Data on seven molecules can be found in patent US5371102A, “Compositions and methods of inhibiting thyroid activity” (priority 1993, dated 1994).

Data set [1] addresses T1, LPX (Bos taurus, UniProt P80025).
T1 construct: purchased Sigma Chemical Company
The data set can be described thus: LPX-mediated covalent binding of labelled thiocarbamides to LPX. To be noted: +H2O2 vs. +H2O2 +KI; 14C- and 35S-labelled. Also noted: species or system bovine. An excerpt: (§1) Materials used in the examples below were obtained from the following sources. Bovine LPX, bovine liver catalase, glucose oxidase, 30% hydrogen peroxide, glucose, guaiacol, ABTS and deuterium oxide were purchased from Sigma Chemical Company. Selenium dioxide, MBI ^13 CH3 I and PBA were purchased from Aldrich Chemical Company and PBA was purified as previously described by Fieset et al., Reagents for Organic Synthesis, Vol. I, pp.135-139, John Wiley and Sons, N.Y. (1967). LPX purity was checked by PAGE, as described by Doerge, D.R., et al. in, Biochem. Pharmacol., Vol.36, pp.972-974 (1986). TPX was purified from hog thyroids obtained from a local slaughterhouse by published procedures. Doerge & Takazowa, Chemical Research in Toxicology, Vol. 3, pp. 98-101 (1990). TPX purity was determined by LC and its concentration determined spectophotometrically. Hydroperoxide concentrations were determined by iodometric titration, as described by Kolthoff, et al., in "Quantitative Chemical Analysis", Macmillan, London, pp.842-860 (1969). MMBI, and BI were synthesized by published procedures as described by Doerge, D.R., Biochem, Vol. 27, pp. 3697-3700 (1988) and were recrystallized from aqueous ethanol. MeBI was purified by distillation and DMeBI^+ was synthesized and purified by recrystallization from ethyl acetate/methanol. 1-^13 C-MMBI was synthesized from ^13 CH3 I according to the procedure disclosed by Doerge, D.R., in, J. Lab. Comp. and Radiopharm., Vol.25, pp.985-990 (1988). PPHP and PPA were prepared, purified and analyzed as previously described by Doerge, Biochem, Vol.27, p.11 (1988). The methyl ester of 1-methyl-benzimidazole-2-sulfinic acid was prepared by addition of hydrogen peroxide (5 equivalents of a 10 M solution) to MMBI (0.1 M) in methanol. The products, MeBI and the ester, were obtained following preparative TLC on silica (Uniplate, Analtech Co., Newark, DL) using 5% methanol/chloroform as eluant.
LPX-mediated covalent binding of ^14 C- and ^35 S-labelled thiocarbamides to LPX under iodide-dependent and -independent conditions was measured.

A short description of data set [2]: chemical oxidation stoichiometry of thiones. To be noted: for moles of oxidant required for total reaction: PBA, FIG. 4. The data set is classed as physicochemical. Here is the method: Oxidation stoichiometries were determined for the thione compounds MBI, MMBI and DMMBI by incubating the thiones with varying amounts of PBA (0-250μM). The rapid reaction (t1/2 <10 s at 25° C.) of benzimidazole-2-thiones with PBA in methanol provided a convenient method for determining oxidation stoichiometry.
(§2) Oxidation stoichiometries were determined spectrophoto, metrically, using a Hewlett Packard 8452A diode array spectrophotometer, by measuring thione concentration at 305 nm as a function of PBA concentration. Hydroperoxide content was determined iodometrically. Stoichiometries of substrate consumption/product formation were also determined by addition of limiting amounts of PBA to 100 μM MBI or MMBI in 50% methanol/pH 7 phosphate. The disappearance of thione and the production of BI, MeBI and bisulfite ion was determined after one hour at 25° C. The production of bisulfite ion was measured […]. The production of sulfate ion was determined by ion chromatography using a AS4A column (Dionex Co., Sunnyvale, CA) with a Dionex Gradient Pump Module and a Dionex CDM II conductivity detector equipped with an AMMS suppressor using 3 mM carbonate/bicarbonate buffer pH 10 as eluant at 2.0 ml/min. Reaction products were also monitored by ^1 H NMR performed at 300 MHz using a Nicolet NT300 or General Electric QE300 spectrometer DSS as a reference.

Data set [3] deals with T2, TPX (Sus scrofa, UniProt P09933).
T2 sequence (P09933 15-926): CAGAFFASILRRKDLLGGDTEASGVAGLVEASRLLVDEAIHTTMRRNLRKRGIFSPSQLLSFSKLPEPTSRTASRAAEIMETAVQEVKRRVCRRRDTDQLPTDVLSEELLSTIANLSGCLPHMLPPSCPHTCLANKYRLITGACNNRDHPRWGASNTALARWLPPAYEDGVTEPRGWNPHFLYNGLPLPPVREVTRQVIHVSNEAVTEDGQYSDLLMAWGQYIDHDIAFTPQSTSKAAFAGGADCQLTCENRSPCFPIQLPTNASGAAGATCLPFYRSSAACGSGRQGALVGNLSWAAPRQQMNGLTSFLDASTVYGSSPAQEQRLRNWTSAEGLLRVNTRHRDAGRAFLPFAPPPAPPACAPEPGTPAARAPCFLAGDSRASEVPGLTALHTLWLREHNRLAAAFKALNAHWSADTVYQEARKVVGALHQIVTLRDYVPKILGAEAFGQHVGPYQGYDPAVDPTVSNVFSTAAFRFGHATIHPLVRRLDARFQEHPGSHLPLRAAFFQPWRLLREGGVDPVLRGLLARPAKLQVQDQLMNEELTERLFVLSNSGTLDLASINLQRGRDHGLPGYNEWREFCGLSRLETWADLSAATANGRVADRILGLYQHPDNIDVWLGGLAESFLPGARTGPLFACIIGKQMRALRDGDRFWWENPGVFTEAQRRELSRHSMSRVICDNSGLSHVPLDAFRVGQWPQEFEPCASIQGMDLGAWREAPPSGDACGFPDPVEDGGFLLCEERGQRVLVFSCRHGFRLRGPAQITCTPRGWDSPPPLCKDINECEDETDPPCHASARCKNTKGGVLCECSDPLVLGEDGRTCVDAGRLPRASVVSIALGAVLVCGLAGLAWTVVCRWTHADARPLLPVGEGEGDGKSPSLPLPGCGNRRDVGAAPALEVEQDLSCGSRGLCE
The data set can be described thus: TPX inactivation. The data set is classed as biochemical, hog. To be noted: presence of hydrogen peroxide.
Source text: as §1
DMMBI was synthesized according to a published method. Duffin et al., J. Chem. Soc., Part II, pp.364-365 (1956). Samples including TPX, H2 O2, and I^- were incubated with and without DMMBI. Triiodide formation was observed spectrophotometrically with respect to time.

The target in data set [4] is T1, LPX. The data set can be described thus: LPX suicide inactivation kinetics. The data set is classed as biochemical, bovine.
Source text: as §1
Inhibition of LPX activity by thiones was determined from the kinetics of iodide ion, guaiacol or ABTS oxidation assays conducted at 25° C. Kinetic parameters of suicide inactivation were determined as previously described. Doerge, Biochem. Vol.27, pp.3697-3700 (1988).

Data set [5] concerns LPX and TPX. The data set can be described thus: suicide inhibition of peroxidases (summary statements). Format: biochemical. Particulars: for suicide inhibition: summary of own examples.
The nature of data set [6]: thione reaction with PBA in aqueous buffered methanol, product ratios. The data set is classed as physicochemical. To be noted: thione 100 μM, PBA 0-200 μM. The protocol: as §2
The reaction of MBI and MMBI with PBA was also examined in aqueous buffered methanol. Thione (100 μM) was incubated with varying concentrations of PBA (0-200 μM). Reactant and product quantities were determined by LC as described in example 1. The ratios of product formation to thione consumption were calculated, and are reported below in Table 1. The values are averages of two slope determinations, i.e., moles of product formed or reactant consumed vs. moles of oxidant added, each determined from at least five data points.

Data set [7] can be described thus: kinetics of thione oxygenation by hydrogen peroxide/TFA. Particulars: thione 25 μM, H2O2 34 mM, TFA 163 mM in methanol, 25° C.; relative to DMMBI. Format: physicochemical. Here is the method:
The kinetics of thione oxygenation were determined for MBI, MMBI and DMMBI. Oxygenation by hydrogen peroxide/TFA was measured spectrophotometrically (305 nm) at 25° C. by addition of thione (final concentration 25 μM) to hydrogen peroxide (34 mM) and TFA (163 mM) in methanol.

The target in data set [8] is T2, TPX. The data set can be described thus: covalent binding to TPX in the presence of H2O2. Also noted: species or system hog.
Source text: as §1, with “MeBI was purified by distillation and DMeBI^+ was synthesized and purified by recrystallization from ethyl acetate/methanol. 1-^13 C-MMBI was synthesized from ^13 CH3 I according to the procedure disclosed by Doerge, D.R., in, J. Lab. Comp. and Radiopharm., Vol.25, pp.985-990 (1988).” left out, “The methyl ester of 1-methyl-benzimidazole-2-sulfinic acid was prepared by addition of hydrogen peroxide (5 equivalents of a 10 M solution) to MMBI (0.1 M) in methanol. The products, MeBI and the ester, were obtained following preparative TLC on silica (Uniplate, Analtech Co., Newark, DL) using 5% methanol/chloroform as eluant.” left out

Data set [9] addresses T2, TPX. The data set can be described thus: TPX-catalyzed iodide oxidation (triiodide formation), spectrophotometric. Format: biochemical, hog. Particulars: TPX, H2O2 and I-.
Source text: as §1, with “eluant. […]” for “eluant.”
1,3-diacetyl MBI (AczMBI) was synthesized according to the method published by Doerge et al., Syn. […] Varying quantities of Ac2 MBI were incubated with TPX, H2 O2, and I^-. […]

In data set [10] the test system is LPX and TPX. Particulars: currently used drugs, background; cited from earlier work.
The conditions of data set [11]: cited from earlier work.
The test system of data set [12] is TPX. To be noted: cited from earlier work.
Data set [13] concerns LPX. To be noted: cited from earlier work.

Entries after “also recorded” stand apart in the source; their conditions may differ. Like-named read-outs stand apart in the source and are kept apart here.

On to `Cn1c(S)nc2ccccc21` [MMBI, 1-methylbenzimidazole-2-thione], for which, at LPX [1], the “covalent binding to LPX” value is “become covalently bound to LPX”. Also, the “moles of oxidant required for total reaction” value in [2] is on record as “two”. For the same molecule, in data set [2] (hydroperoxides), the “equivalents of hydroperoxide required per mole of thione” value is on record as 2 equivalents. Also, the TPX inactivation result at TPX [3] was “rapid, irreversible loss of LPX and TPX activity; also recorded: cause rapid, irreversible enzyme inactivation”. At LPX [4] (25° C.), the “partition ratio (LPX inactivation)” value is listed as ~35. The KI (inactivation) at LPX [4] (25° C.; read-out: Ki (LPX inactivation)) was 274 nM. Further, the “LPX inactivation / loss of LPX activity” value at LPX [4] (presence of hydrogen peroxide) is “rapid, irreversible loss of LPX and TPX activity; also recorded: cause rapid, irreversible enzyme inactivation”. Also, the suicide inhibition entry with LPX and TPX [5] is given as “suicide inhibitors”. Besides, in data set [6], the PBA/thione came to 1.98, the benzimidazole/thione turned out to be 0.87 and the bisulfite/thione stood at 0.72. Further, the “relative rate of oxygenation” value in data set [7] came out at 1.3. Moreover, the “covalent binding to TPX” value on TPX [8] was “bind covalently to LPX and TPX”.

As for `CC(=O)n1c(=S)n(C(C)=O)c2ccccc21` [Ac2 MBI, 1,3-diacetylbenzimidazole-2-thione], the “selectivity for iodide ion oxidation” value in the data set with LPX and TPX [5] (alternate substrate mechanism) is reported as “block only reactions involving iodide ion oxidation”. For the same molecule, the suicide inhibition entry with LPX and TPX [5] is “not suicide inhibitors”. Further, the “effect on triiodide formation” value at TPX [9] is recorded as “exhibits similar inhibition of triiodide formation as was observed with DMMBI”.

For `CCCc1cc(=O)[nH]c(=S)[nH]1` [propylthiouracil], the suicide inhibition entry with LPX and TPX [10] is given as “suicide inhibitors”.

Take `Sc1nc2ccccc2[nH]1` [MBI, benzimidazole-2-thione]: the “covalent binding to LPX” value at LPX [1] is on record as “become covalently bound to LPX”. Moreover, the “moles of oxidant required for total reaction” value in data set [2] is recorded as “two”. For the same molecule, the TPX inactivation entry at TPX [3] was “rapid, irreversible loss of LPX and TPX activity; also recorded: cause rapid, irreversible enzyme inactivation”. Moreover, the “partition ratio (LPX inactivation)” value on LPX [4] (25° C.) was “approximately 3”. Also, the “LPX inactivation / loss of LPX activity” value at LPX [4] (presence of hydrogen peroxide) is “rapid, irreversible loss of LPX and TPX activity; also recorded: cause rapid, irreversible enzyme inactivation”. The KI (inactivation) on LPX [4] (read-out: Ki (LPX inactivation); 25° C.) was 0.1 nM. Moreover, the suicide inhibition result in the data set with LPX and TPX [5] is recorded as “suicide inhibitors”. Besides, in data set [6], the PBA/thione is 1.89, the benzimidazole/thione is reported as 0.89 and the bisulfite/thione is 0.72. Moreover, in [7], the “relative rate of oxygenation” value was found to be 2.3. Besides, the “covalent binding to TPX” value at TPX [8] was “bind covalently to LPX and TPX”.

Take `CCOC(=O)n1ccn(C)c1=S` [carbimazole, 1-carboxyethyl-3-methylimidazole-2-thione]: the “in vivo stability / conversion” value in data set [11] was “labile in vivo and is rapidly converted to methimazole”.

As for `S=C1NCCN1` [ETU, imidazolidine-2-thione], in the data set with TPX [12], the “inhibition of TPX-catalyzed iodination” value is “inhibits TPX- and LPX-catalyzed iodination reactions”. The “inhibition of LPX-catalyzed iodination” value with LPX [13] is “inhibits TPX- and LPX-catalyzed iodination reactions”.

On to `Cn1cc[nH]c1=S` [MMI, 1-methylimidazole-2-thione], for which the suicide inhibition entry in the data set on LPX and TPX [10] was “suicide inhibitors”.
